One assay has as its system −333_CaBP22::GUS. Nature of the assay: GUS activity after spray-treatment of soil grown seedlings (structure-activity analysis, FIG. 5B, FIG. 8B). It counts as in vivo, Arabidopsis. The following applies: 48 hours after spray-treatment, structure-activity analysis. Here is the method:
(A) Chemical structures of DCA analogs analyzed. […] Proteins were extracted from 2 week old soil grown Col-0 seedlings 48 hours after spray-treatment with compounds at the indicated concentrations (uM). Means and standard errors calculated from 3 independent replicates. (c) HpNoco2 growth inhibition assay. 2 week old soil grown Col-0 seedlings were spray-infected with HpNoco2 48 hours after treatment with varying concentrations (uM) of each DCA analog. Seedlings were assayed 7 dpi for Peronospora growth (spore counts). 100% inhibition=0 spores.
DCA and the known SA-analog INA are structurally related. To compare their activities and to gain further understanding on structural features required for their defense inducing activities, a structure function analysis (SAR) was performed using multiple derivatives of DCA and INA (FIG. 8A).

The test system of assay [1] is HpNoco2 (virulent Peronospora). In words: HpNoco2 disease resistance assay on soil grown seedlings (spore / sporangiophore counts 7 dpi). It counts as in vivo, Arabidopsis. The following applies: for efficiency in inducing resistance to HpNoco2 (defense inducing activity): infection 48 hours after treatment, structure-activity analysis. Here is the method: (A) RT-PCR analysis of CaBP22 and WRKY70 expression in Col-0 (wild type) and mutant backgrounds 24 hours after spraying 2 week old seedlings with water (un), 1 mM SA, or 100 μM DCA. ACT8 is shown as loading control. […] (B) Two week old seedlings were sprayed with virulent HpNoco2 24 hours after pre-treatment with 100 uM DCA. Spores were counted 7 days after spray infection. Means and standard errors were calculated from three independent experiments. Mann-Whitney U test (p<0.05) was used to determine significant differences among mutants.
A: Extent of disease susceptibility/resistance determined by counting the numbers of Peronospora sproangiophores of 17 day old seedlings 7 d after spray-inoculation with 5E4 HpNoco2 spores/ml. 24 h prior to infection with Noco2 the aerial parts of the soil grown seedlings were sprayed with the indicated concentrations of DCA (compound 67) or SA. Three replicates each with at least 30 seedlings per treatment gave similar results. […] Concentrations higher than 100 μM caused cell death, as indicated by reduced GUS staining.
(A) Chemical structures of DCA analogs analyzed. (B) Fluorometric analysis of GUS activities induced by DCA analogs. Proteins were extracted from 2 week old soil grown Col-0 seedlings 48 hours after spray-treatment with compounds at the indicated concentrations (uM). Means and standard errors calculated from 3 independent replicates. (c) HpNoco2 growth inhibition assay. 2 week old soil grown Col-0 seedlings were spray-infected with HpNoco2 48 hours after treatment with varying concentrations (uM) of each DCA analog. Seedlings were assayed 7 dpi for Peronospora growth (spore counts). 100% inhibition=0 spores. Assay was repeated three times with similar results.
DCA induces disease resistance. Time-course experiment with 2-week old Col-0 seedlings that were sprayed with 100 uM of the respective compounds at the indicated times prior to HpNoco2 (3×10^4 spores/ml) spray-infection. Spores were counted 7 dpi.

Assay [2] concerns cluster of 131 Arabidopsis genes (Table 1). In words: Affymetrix ATH1 whole genome microarray of induced transcriptional responses. It counts as in vivo. Here is the method: This transient activity of DCA functionally discriminates it from INA and allows us to precisely correlate molecular event, such as transcriptional changes, with disease resistance. Therefore we performed a set of microarray experiments with Affymetrix ATH1 Arabidopsis whole genome chips profiling DCA- and INA-induced transcriptional responses at 48 h and 6 d post treatment. […] The reference accession numbers and information can be used by one of skill in the art to obtain the sequences and additional information from public databases available at the time of filing.

For the next assay, the system named is PR1. The following applies: Wendehenne et al., 1998; Pillonel, 2001; read-out: published EC50 value for PR1 induction; cited from earlier work.

Molecules are shown by their SMILES. pEC50: −log10 of the molar value. Entries after “also recorded” stand apart in the source; their conditions may differ.

In the case of `O=C(O)c1cc(Cl)cc(Cl)c1` [3,5-Dichlorobenzoic acid, reference compound], the “efficiency in inducing −333_CaBP22::GUS expression (defense inducing activity)” value in the assay with −333_CaBP22::GUS is on record as “DCA is more active than 3,5-Dichlorobenzoic acid”. Further, in assay [1], the “efficiency in inducing resistance to HpNoco2 (defense inducing activity)” value (shortened to “efficiency in inducing resistance”) was “DCA is more active than 3,5-Dichlorobenzoic acid”.
As for `Nc1c(Cl)cccc1C(=O)O` [3-Chloroanthranilic acid], the “efficiency in inducing −333_CaBP22::GUS expression (defense inducing activity)” value in the assay on −333_CaBP22::GUS is listed as “reduced defense inducing activities”. Also, the “efficiency in inducing resistance” value in assay [1] was “reduced defense inducing activities”.
`O=C(O)c1cccc(Cl)c1` [3-Chlorobenzoic acid, reference compound]: in the assay on −333_CaBP22::GUS, the “efficiency in inducing −333_CaBP22::GUS expression (defense inducing activity)” value is given as 3-Chloroanthranilic acid is more active than 3-Chlorobenzoic acid. In assay [1], the “efficiency in inducing resistance” value is 3-Chloroanthranilic acid is more active than 3-Chlorobenzoic acid.
Take `Nc1ccc(Cl)cc1C(=O)O` [5-Chloroanthranilic acid]: the “efficiency in inducing −333_CaBP22::GUS expression (defense inducing activity)” value in the assay with −333_CaBP22::GUS was “reduced defense inducing activities”. Further, the “efficiency in inducing resistance” value in assay [1] is “reduced defense inducing activities”.
On to `Nc1cccc(Cl)c1C(=O)O` [6-Chloroanthranilic acid, reference compound], for which the “efficiency in inducing −333_CaBP22::GUS expression (defense inducing activity)” value in the assay on −333_CaBP22::GUS was “completely inactive”. The “efficiency in inducing resistance” value in assay [1] was “completely inactive”.
On to `O=C(O)c1cc(Cl)nc(Cl)c1` [INA, 2,6-dichloroisonicotinic acid, reference compound], for which, in the assay on −333_CaBP22::GUS, the “efficiency in inducing −333_CaBP22::GUS expression (defense inducing activity)” value was “nearly identical”. Moreover, the “up-regulation of cluster of 131 genes at 48 h post treatment” value in assay [2] (48 h post treatment) is recorded as “significantly up-regulated”. In addition, the “up-regulation of cluster of 131 genes at 6 d post treatment” value in assay [2] (6 d post treatment) is “significantly up-regulated”. Besides, in assay [1] (100 uM, time-course, FIG. 9), the “duration of defense-inducing activity” value is on record as “lasts much longer leading to strong disease resistance for the entire duration of the experiment”. In addition, the “efficiency in inducing resistance” value in assay [1] is given as “nearly identical; also recorded: equally efficient”. Further, in the assay with PR1, the negative logarithm of the EC50 (pEC50) was 5.00.
Regarding `O=C(O)c1ccccc1O` [SA, salicylic acid], in the assay with −333_CaBP22::GUS, the “efficiency in inducing −333_CaBP22::GUS expression (defense inducing activity)” value is on record as “less efficiently than DCA or INA”. In addition, the “efficiency in inducing resistance” value in assay [1] is on record as “less efficiently than DCA or INA”. Also, the pEC50 in the assay with PR1 was 4.19.
Regarding `Nc1ccccc1C(=O)O` [anthranilic acid, reference compound], the “efficiency in inducing −333_CaBP22::GUS expression (defense inducing activity)” value in the assay on −333_CaBP22::GUS is “nearly completely inactive”. The “efficiency in inducing resistance” value in assay [1] was “nearly completely inactive”.
As for `O=C(O)c1ccccc1` [benzoic acid, reference compound], the “efficiency in inducing −333_CaBP22::GUS expression (defense inducing activity)” value with −333_CaBP22::GUS was “nearly completely inactive”. For the same molecule, the “efficiency in inducing resistance” value in assay [1] is “nearly completely inactive”.
